Experiments:
[1] = target: PhoX (Xanthomonas citri, UniProt A0AAI8ERC0); assay: thermal unfolding by CD at […] nm; format: binding; settings: Tm without to with 30 μM NaH2PO4; 2 μM protein, 10 mM Tris-HCl pH 8.0, 20-95 °C
[2] = target: PstS (Xanthomonas citri, UniProt A0AAI8ESD8); assay: thermal unfolding by CD at […] nm; format: binding; settings: Tm without to with 30 μM NaH2PO4; 2 μM protein, 10 mM Tris-HCl pH 8.0, 20-95 °C
PstS, sequence (A0AAI8ESD8 entry or part of it): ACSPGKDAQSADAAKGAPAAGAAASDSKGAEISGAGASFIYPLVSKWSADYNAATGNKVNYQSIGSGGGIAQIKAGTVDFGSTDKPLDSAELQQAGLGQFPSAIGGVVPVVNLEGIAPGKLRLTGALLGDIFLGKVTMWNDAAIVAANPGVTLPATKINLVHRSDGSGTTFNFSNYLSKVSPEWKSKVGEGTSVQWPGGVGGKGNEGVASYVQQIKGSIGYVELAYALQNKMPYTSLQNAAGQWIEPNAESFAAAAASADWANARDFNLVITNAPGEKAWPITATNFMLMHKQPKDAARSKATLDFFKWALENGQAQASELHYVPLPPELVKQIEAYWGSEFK

PhoX, sequence (A0AAI8ERC0 entry or part of it): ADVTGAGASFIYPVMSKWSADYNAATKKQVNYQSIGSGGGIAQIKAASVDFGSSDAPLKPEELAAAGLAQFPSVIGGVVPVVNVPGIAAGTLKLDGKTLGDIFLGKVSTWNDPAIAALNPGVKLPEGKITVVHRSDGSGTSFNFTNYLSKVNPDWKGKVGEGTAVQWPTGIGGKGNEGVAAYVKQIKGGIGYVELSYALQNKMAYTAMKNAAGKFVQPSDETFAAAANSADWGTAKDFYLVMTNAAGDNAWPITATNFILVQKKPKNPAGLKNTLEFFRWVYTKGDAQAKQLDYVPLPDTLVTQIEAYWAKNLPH

## O=P(O)(O)O [phosphate]
[1]
  Tm: 64 to 77 °C
[2]
  Tm: 71 to 78 °C

From article PMC5439949, “Structural features of PhoX, one of the phosphate-binding proteins from Pho regulon of Xanthomonas citri” (PLoS ONE, 2017)
